# According to publication PMC8774489, “[(WR)8WKβA]-Doxorubicin Conjugate: A Delivery System to Overcome Multi-Drug Resistance against Doxorubicin” (Cells, 2022):
# Where two headings read alike, the source gives them in different places. Peptide text beside a SMILES is read from it.
# Legend:
# MCF-7 cells = test: In vitro cytotoxicity (MTS) assay in MCF-7 cells; type: cell-based, human; conditions: for reduction of MCF-7 cell proliferation: mean n = 3
# Protocol: (§1) The incubation was continued for 3 h.
# MES-SA/MX2 cells [1] = test: In vitro cytotoxicity (MTS) assay in Dox-resistant MES-SA/MX2 cells; type: cell-based
# Protocol: as §1
# [2] = molecular transporter of fluorescence-labeled phosphopeptide; cited from earlier work
# From the text: Recently, we have reported amphiphilic cyclic CPPs composed of increasing numbers of W and R residues [WR]6–9, and compared their efficiency with the previously published cyclic [WR]5 in improving the cellular uptake of cell-impermeable compounds and their molecular transporter efficiency.
# MDA-MB-231 cells [3] = test: FACS cellular uptake with endocytosis inhibitors in MDA-MB-231 cells; type: cell-based, human; conditions: MDA-MB-231, conjugate 5 µM, 3 h, flow cytometry, n = 3
# Protocol: A flow cytometry study was conducted in the presence of endocytosis inhibitors such as nystatin, chlorpromazine, chloroquine, and methyl β-cyclodextrin to determine whether the cellular uptake for the peptide-Dox was endocytosis-dependent. MDA-MB-231 (5 × 10^5 cells/well) were seeded in the medium 24 h prior to the experiment in six well plates, and after 24 h the medium was changed with opti-MEM. […] The cells were then incubated with [(WR)8WKβA]-Dox conjugate (5 µM) in the presence of inhibitors for 3 h. After 3 h incubation, the media containing the compounds were removed. Next, the cells were digested with 0.05% trypsin/EDTA (0.53 mM) for 5 min to remove any artificial surface binding, centrifuged at 2500 RPM for 5 min with Fisher Scientific accuSpin Micro 17, and then collected as the precipitant. Then the cells were washed two times with PBS, resuspended in flow cytometry buffer, and transferred to the flow cytometry tubes through the 35 µm Strainer Mesh cap. Finally, the cells were analyzed by flow cytometry (FACSCalibur: Becton Dickinson, San Jose, CA, USA) using the Propidium Iodide channel and CellQuest software. The data presented were based on the mean fluorescence intensity for 10,000 cells collected. All assays were performed in triplicate.
# MDA-MB-231 cells [4] = test: Differential nuclear and cytoplasmic extraction of Dox, HPLC; type: cell-based, human; conditions: 50 μM, 4 h exposure, MDA-MB-231, nuclear extract, HPLC at 490 nm
# Protocol: In order to confirm nuclear delivery of peptide-conjugated Dox, in addition to confocal microscopy, we performed a differential nuclear and cytoplasmic extraction. […] The cells were then pelleted at 2000 rpm for 5 min. After removing the supernatant, the cells were resuspended in Dounce buffer containing protease inhibitors. The cell suspension to be used was incubated on ice for 15 min before being spiked with cold 10% NP-40 and vortexed for 10 s. The suspension was centrifuged at 10,000 rpm for 10 min at 4 °C to pellet the nuclei. The supernatant was isolated for cytoplasmic extraction. The nuclear pellet was washed in cold PBS twice and centrifuged to remove the supernatant. The isolated nuclei were then lysed using RIPA buffer containing protease inhibitors. The nuclear and cytoplasmic extractions were analyzed by analytical HPLC to differentially quantify free Dox (or Dox released from the conjugates) and peptide-conjugate Dox using an Agilent Zorbax SB-C18 (4.6 × 150 mm) column. The column was equilibrated with 0.1% TFA-water (solvent A). The elution was performed at a flow rate of 1 mL/min using a gradient of acetonitrile from 0 to 35% in 50 min, with the absorbance measured at 490 nm.
# SK-OV-3 cells [5] = test: Confocal microscopy uptake and retention in SK-OV-3 cells; type: cell-based, human; conditions: SK-OV-3, 5 μM, 3 h then 24 h in media
# Protocol: MDA-MB-231, SK-OV-3, MES-SA/MX2, and H9C2 cells (7 × 10^4 cells/well) were seeded with a medium on a coverslip 24 h prior to the experiment in six well plates. After 24 h, the medium was changed with opti-MEM. […] After 24 h incubation, the media were removed, and cells were washed three times with PBS in each well. Then, the cells were fixed with 3.7% formaldehyde for 10 min, followed by washing three times with PBS for 5 min (pH 7.6). DAPI (40 µL) for staining the nuclei was placed on a microscope slide, and it was covered with the coverslip with the cell-attached side facing down. The slides were left standing horizontally in a dark place with airflow to allow drying faster. The cells were photographed using Nikon Instruments A1 Confocal Laser Microscope Series (Nikon Instruments Inc, NY, USA) and NIS-Elements software (AR 4.30.02, 64 bit). The scan mode was selected as Galvano. The magnification and resolution were set at 40× and 1024, respectively.
# H9C2 cells = test: Confocal microscopy uptake in H9C2 heart cells; type: cell-based, rat; conditions: H9C2, 5 µM (mixture: Dox 5 µM with [WR]9 5 or 10 µM), 24 h
# Protocol: (§2) MDA-MB-231, SK-OV-3, MES-SA/MX2, and H9C2 cells (7 × 10^4 cells/well) were seeded with a medium on a coverslip 24 h prior to the experiment in six well plates. After 24 h, the medium was changed with opti-MEM. The cells were treated with Dox and peptide-Dox conjugate (5 μM) in opti-MEM for 24 h. After 24 h incubation, the media were removed, and cells were washed three times with PBS in each well. Then, the cells were fixed with 3.7% formaldehyde for 10 min, followed by washing three times with PBS for 5 min (pH 7.6). DAPI (40 µL) for staining the nuclei was placed on a microscope slide, and it was covered with the coverslip with the cell-attached side facing down. The slides were left standing horizontally in a dark place with airflow to allow drying faster. The cells were photographed using Nikon Instruments A1 Confocal Laser Microscope Series (Nikon Instruments Inc, NY, USA) and NIS-Elements software (AR 4.30.02, 64 bit). The scan mode was selected as Galvano. The magnification and resolution were set at 40× and 1024, respectively.
# CCRF-CEM cells = conditions: conjugate 5 μM for 4 h at 37 °C, then drug-free medium, HPLC AUC
# Protocol: Intracellular hydrolysis of [(WR)8WKβA]-Dox and accumulation of free Dox and the peptide–Dox conjugate were determined in CCRF-CEM cells by HPLC analysis. Cells were grown with serum-free RPMI medium in 75 cm^2 culture flasks to ∼70–80% confluence (1.37 × 10^7 cells/mL). The medium was first replaced with fresh RPMI medium having [(WR)8WKβA]-Dox conjugate (5 μM). Then the cells were incubated for 4 h at 37 °C. After 4 h, the medium containing the conjugate was aspirated, and cells were washed three times with PBS before adding a fresh serum-free medium. The cells were first partitioned/transferred to culture plates (six wells) contained 1.37 × 10^7 cells per well in 5 mL of medium, then incubated for the indicated time. After incubation, the cells were collected using centrifugation. After centrifugation, the medium was removed by decantation. The cell pellets were washed with ice-cold PBS to remove any remaining medium. The cell pellets were then completely extracted with an equal volume of methanol, chloroform, and isopropanol mixture (4:3:1 v/v/v) and finally filtered through 0.2 μm filters. The relative amount of Dox and [(WR)8WKβA]-Dox concentrations in cell lysates were quantified by analytical HPLC using the water/acetonitrile solvent.
# MES-SA/MX2 cells [6] = test: Confocal microscopy internalization in MES-SA/MX2 cells; type: cell-based; conditions: MES-SA/MX2, 5 μM, 24 h
# Protocol: as §2
# MES-SA/MX2 cells [7] = test: FACS cellular uptake with endocytosis inhibitors in MES-SA/MX2 cells; type: cell-based; conditions: MES-SA/MX2, conjugate 5 µM, 3 h, flow cytometry, n = 3
# in vitro = conditions: human, 25% human serum
# Protocol: Human serum (250 μL) was diluted by adding sterile water (650 μL) and conjugate stock solution (100 μL) to give a sample with 25% human serum and 5 μM conjugate. The sample was kept at 37 °C in an incubator to mimic human body temperature. At regular time intervals, aliquots (100 μL) were taken and diluted with methanol (200 μL). After centrifugation (7000 RPM) of the mixture for 10 min, the supernatant was analyzed by analytical HPLC at 495 nm, and the major HPLC peaks were analyzed by mass spectrometry. The mobile phase used was acetonitrile/water with 0.1% TFA, with a gradient of 20–45% and a flow rate of 1 mL/min in 50 min. The percentage of intact conjugate and the release of the free drug were plotted against incubation time. The AUC obtained after each run was used to confirm the conjugate’s degradation, and t1/2 (the time needed to hydrolyze half of the initial conjugate in human serum) was calculated from the graph plotted as AUC versus incubation time.
# H9C2 myocardium cells = conditions: 24 h, MTS, n = 3
# Protocol: The cells were seeded in a complete growth medium 24 h prior to the experiment. […] The incubation was continued for 3 h.
# SK-OV-3 cells [8] = type: cell-based, human; conditions: 5 µM, 72 h, MTS, mean n = 3
# Protocol: as §1
# MDA-MB-231 cells [9] = type: cell-based, human; conditions: MTS; for MDA-MB-231 cell viability: 5 µM, mean n = 3
# Protocol: as §1
# [10] = tested on: K562/ADR (human erythroleukemic cells); parameters: method as in PMID 11261883; conditions: resistant K562/ADR cells; cited from earlier work
# From the text: Different linear CPPs such as penetratin [15], TAT [18], polyarginine, and maurocalcine have been conjugated with Dox.
# [11] = chlorpromazine 30 μM, methyl-β-cyclodextrin 2.5 mM
structure (smiles),measurement,setting,value
"N=C(N)NCCC[C@@H]1NC(=O)[C@H](Cc2c[nH]c3ccccc23)NC(=O)[C@H](CCCNC(=N)N)NC(=O)[C@H](Cc2c[nH]c3ccccc23)NC(=O)[C@H](CCCNC(=N)N)NC(=O)[C@H](Cc2c[nH]c3ccccc23)NC(=O)[C@H](CCCNC(=N)N)NC(=O)[C@H](Cc2c[nH]c3ccccc23)NC(=O)[C@H](CCCNC(=N)N)NC(=O)[C@H](Cc2c[nH]c3ccccc23)NC(=O)[C@H](CCCNC(=N)N)NC(=O)[C@H](Cc2c[nH]c3ccccc23)NC(=O)[C@H](CCCNC(=N)N)NC(=O)[C@H](Cc2c[nH]c3ccccc23)NC(=O)[C@H](CCCNC(=N)N)NC(=O)[C@H](Cc2c[nH]c3ccccc23)NC(=O)[C@H](CCCNC(=N)N)NC(=O)[C@H](Cc2c[nH]c3ccccc23)NC1=O [[WR]9] (HELM PEPTIDE1{R.W.R.W.R.W.R.W.R.W.R.W.R.W.R.W.R.W}$PEPTIDE1,PEPTIDE1,1:R1-18:R2$$$V2.0)",effect of [WR]9 alone on MCF-7 cell survival,"MCF-7 cells; different concentrations (1, 5, 10 μM)",no significant effect on cell survival
same,antiproliferative effect of [WR]9 alone on MES-SA/MX2,MES-SA/MX2 cells [1]; 24 and 72 h,no significant antiproliferative effect
same,enhancement of cellular uptake of F′-GpYEEI,[2],20 fold
"COc1cccc2c1C(=O)c1c(O)c3c(c(O)c1C2=O)C[C@@](O)(C(=O)COC(=O)CCCC(=O)NCCC(=O)NCCCC[C@@H]1NC(=O)[C@H](Cc2c[nH]c4ccccc24)NC(=O)[C@H](CCCNC(=N)N)NC(=O)[C@H](Cc2c[nH]c4ccccc24)NC(=O)[C@H](CCCNC(=N)N)NC(=O)[C@H](Cc2c[nH]c4ccccc24)NC(=O)[C@H](CCCNC(=N)N)NC(=O)[C@H](Cc2c[nH]c4ccccc24)NC(=O)[C@H](CCCNC(=N)N)NC(=O)[C@H](Cc2c[nH]c4ccccc24)NC(=O)[C@H](CCCNC(=N)N)NC(=O)[C@H](Cc2c[nH]c4ccccc24)NC(=O)[C@H](CCCNC(=N)N)NC(=O)[C@H](Cc2c[nH]c4ccccc24)NC(=O)[C@H](CCCNC(=N)N)NC(=O)[C@H](Cc2c[nH]c4ccccc24)NC(=O)[C@H](CCCNC(=N)N)NC(=O)[C@H](Cc2c[nH]c4ccccc24)NC1=O)C[C@@H]3O[C@H]1C[C@H](N)[C@H](O)[C@H](C)O1 [[(WR)8WKβA]-Dox conjugate] (HELM PEPTIDE1{K.W.R.W.R.W.R.W.R.W.R.W.R.W.R.W.R.W}|PEPTIDE2{[COc1cccc2c1C(=O)c1c(O)c3c(c(O)c1C2=O)C[C@@](O)(C(=O)COC(=O)CCCC(=O)[*:2])C[C@@H]3O[C@H]1C[C@H](N)[C@H](O)[C@H](C)O1].[bAla]}$PEPTIDE1,PEPTIDE2,1:R3-2:R2|PEPTIDE1,PEPTIDE1,1:R1-18:R2$$$V2.0)",reduction of MCF-7 cell proliferation,"MCF-7 cells; 1 µM, 24 h",28%
same,reduction of MCF-7 cell proliferation,"MCF-7 cells; 1 µM, 72 h",70%
same,reduction of MCF-7 cell proliferation,"MCF-7 cells; 5 µM, 24 h",55%
same,reduction of MCF-7 cell proliferation,"MCF-7 cells; 10 µM, 24 h",56%
same,reduction of MCF-7 cell proliferation,"MCF-7 cells; 10 µM, 72 h",77%
same,cellular uptake in presence of chlorpromazine and methyl-β-cyclodextrin,MDA-MB-231 cells [3]; [11],slight uptake reduction
same,cellular uptake in presence of nystatin and chloroquine,"MDA-MB-231 cells [3]; nystatin 50 μg/mL, chloroquine 100 μM, 30 min preincubation",not reduced significantly
same,total concentration of Dox (conjugated and released) in the nucleus,MDA-MB-231 cells [4],higher than free Dox
same,"cellular uptake, retention and localization of Dox",SK-OV-3 cells [5],increased the cellular uptake and retention of Dox
same,uptake in heart cells by confocal microscopy,H9C2 cells,did not show any significant uptake
same,free Dox released intracellularly,CCRF-CEM cells; within 12 h,More than 36%
same,free Dox released intracellularly,CCRF-CEM cells; within 72 h,approximately 100%
same,internalization into resistant cells overexpressing P-gp,MES-SA/MX2 cells [6],internalized
same,uptake reduction in presence of chlorpromazine and methyl-β-cyclodextrin,MES-SA/MX2 cells [7]; [11],statistically significant
same,cellular uptake in presence of nystatin and chloroquine,"MES-SA/MX2 cells [7]; nystatin 50 μg/mL, chloroquine 100 μM",not reduced significantly
same,"metabolised at 1 h, 5 µM",in vitro,7%
same,"metabolised at 6 h, 5 µM",in vitro,~50%
same,"metabolised at 12 h, 5 µM",in vitro,> 80%
same,"remaining at 24 h, 5 µM",in vitro,6%
same,cytotoxicity in rat H9C2 myocardium cells,H9C2 myocardium cells; 10 µM,comparable to Dox
same,cytotoxicity in rat H9C2 myocardium cells,H9C2 myocardium cells; 1 and 5 µM,no significant cytotoxicity
"COc1cccc2c1C(=O)c1c(O)c3c(c(O)c1C2=O)C[C@@](O)(C(=O)CO)C[C@@H]3O[C@H]1C[C@H](N)[C@H](O)[C@H](C)O1 [Dox, Doxorubicin]",reduction of MCF-7 cell proliferation,"MCF-7 cells; 5 µM, 24 h",21%
same,reduction of MCF-7 cell proliferation,"MCF-7 cells; 5 µM, 72 h",57%
same,uptake in heart cells by confocal microscopy,H9C2 cells,high uptake
same,reduction of SK-OV-3 cell viability,SK-OV-3 cells [8],35%
same,MDA-MB-231 cell viability,MDA-MB-231 cells [9]; 24 h,79%
same,inhibition of MDA-MB-231 cell viability / proliferation,"MDA-MB-231 cells [9]; 5 μM, 72 h",63%
same,MDA-MB-231 cell viability,MDA-MB-231 cells [9]; 72 h,37%
same,inhibition of MES-SA/MX2 cell viability / proliferation,"MES-SA/MX2 cells [1]; 5 μM, 72 h",15%
same,efficiency of free Dox against MES-SA/MX2,"MES-SA/MX2 cells [1]; 1, 5, 10 or 20 µM",did not show significant efficiency
same,IC50,[10],65 ± 7 µM
